Consider 23 compounds from ChEMBL document CHEMBL3992548, “Design, synthesis and biological evaluation of 2,4-disubstituted oxazole derivatives as potential PDE4 inhibitors” (Bioorg Med Chem, 2017).

The target of the first assay is 3',5'-cyclic-AMP phosphodiesterase 4B (Homo sapiens, UniProt Q07343). Briefly: Inhibition of human U937 cells-derived PDE4B using [3H]cAMP as substrate after 30 mins.
Chain of 3',5'-cyclic-AMP phosphodiesterase 4B (Q07343 whole entry): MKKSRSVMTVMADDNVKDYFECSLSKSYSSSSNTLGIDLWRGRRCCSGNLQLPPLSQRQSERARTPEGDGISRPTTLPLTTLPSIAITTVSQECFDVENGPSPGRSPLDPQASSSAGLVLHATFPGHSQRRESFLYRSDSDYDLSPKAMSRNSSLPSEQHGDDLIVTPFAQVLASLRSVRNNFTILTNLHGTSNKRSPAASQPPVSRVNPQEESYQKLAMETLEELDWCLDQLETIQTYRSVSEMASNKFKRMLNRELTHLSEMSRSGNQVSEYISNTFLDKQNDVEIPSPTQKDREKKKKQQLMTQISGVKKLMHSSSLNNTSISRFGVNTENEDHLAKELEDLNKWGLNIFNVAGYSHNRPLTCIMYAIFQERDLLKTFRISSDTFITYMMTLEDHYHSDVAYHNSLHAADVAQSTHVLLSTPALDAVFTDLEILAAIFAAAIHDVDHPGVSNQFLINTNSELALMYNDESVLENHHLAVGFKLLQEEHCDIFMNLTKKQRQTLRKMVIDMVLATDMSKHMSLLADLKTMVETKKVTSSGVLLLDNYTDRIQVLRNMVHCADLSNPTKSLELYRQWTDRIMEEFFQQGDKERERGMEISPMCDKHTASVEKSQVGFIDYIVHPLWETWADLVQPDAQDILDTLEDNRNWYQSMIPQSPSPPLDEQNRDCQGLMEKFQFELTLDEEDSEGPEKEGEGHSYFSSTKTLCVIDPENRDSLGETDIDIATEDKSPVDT
On to `Cc1cc(C)n(C(=O)c2coc(-c3ccc(Br)cc3)n2)n1`, for which the IC50 (in general, the concentration needed to halve the response being measured) was determined as 54.8 µM.

The compound `Cc1cc(C)n(C(=O)c2coc(-c3cccc(O)c3)n2)n1` showed an IC50 of 28.9 µM.

Consider `COc1ccc(-c2nc(C(=O)n3cccn3)co2)cc1`, for which the IC50 was found to be 3.2 µM.

`Cc1ccc(-c2nc(C(=O)n3cccn3)co2)cc1` returned an IC50 of 17.5 µM.

In the case of `COc1cccc(-c2nc(C(=O)n3nc(C)cc3C)co2)c1`, the midpoint of inhibition, the IC50, lay at 4.5 µM.

`Cc1ccc(-c2nc(C(=O)n3nc(C)cc3C)co2)cc1` gave a concentration for half-maximal inhibition (IC50) of 6.7 µM.

Take `O=C(c1coc(-c2ccc(O)cc2)n1)n1cccn1`: the IC50 came to 18.4 µM.

Take `O=C(c1coc(-c2cccc(O)c2)n1)n1cccn1`: the concentration for half-maximal inhibition (IC50) stood at 39.7 µM.

`O=C(c1coc(-c2ccc(F)cc2)n1)n1cccn1` registered a half-maximal inhibitory concentration (IC50) of 9.8 µM.

The compound `O=C(c1coc(-c2ccccc2O)n1)n1cccn1` had an IC50 of 85.6 µM.

For `COc1ccc(-c2nc(C(=O)n3nc(C)cc3C)co2)cc1`, half-maximal inhibition (IC50) was put at 1.6 µM.

Consider `Cc1cc(C)n(C(=O)c2coc(-c3ccccc3O)n2)n1`, for which the IC50 came to 54.8 µM.

Consider `Cc1cc(C)n(C(=O)c2coc(-c3ccccc3)n2)n1`, for which the concentration for half-maximal inhibition (IC50) turned out to be 75.8 µM.

Take `Cc1cc(C)n(C(=O)c2coc(-c3ccc(O)cc3)n2)n1`: 15.8 µM corresponded to half-maximal inhibition (IC50).

Consider `COc1cccc(-c2nc(C(=O)n3cccn3)co2)c1`, for which the IC50 is 5.9 µM.

In turn, `O=C(c1coc(-c2cccc(F)c2)n1)n1cccn1` had an IC50 of 45.1 µM.

`O=C(c1coc(-c2ccc(Br)cc2)n1)n1cccn1` yielded a concentration for half-maximal inhibition (IC50) of 58.7 µM.

Compound `O=C(c1coc(-c2ccc(Cl)cc2)n1)n1cccn1` gave an IC50 of 5.3 µM.

As to `Cc1cc(C)n(C(=O)c2coc(-c3ccc(F)cc3)n2)n1`, the IC50 worked out at 8.4 µM.

`O=C(c1coc(-c2ccccc2)n1)n1cccn1`: inhibition was half-maximal at 88.7 µM (IC50).

Compound `Cc1cc(C)n(C(=O)c2coc(-c3cccc(F)c3)n2)n1` displayed a concentration for half-maximal inhibition (IC50) of 40.8 µM.

Take `Cc1cc(C)n(C(=O)c2coc(-c3ccc(Cl)cc3)n2)n1`: the 50% inhibitory concentration (IC50) was determined as 4.1 µM.

For another assay, the target named is 3',5'-cyclic-AMP phosphodiesterase 4D (Homo sapiens, UniProt Q08499). Nature of the assay: Inhibition of human U937 cells-derived PDE4D using [3H]cAMP as substrate after 30 mins.
Chain of 3',5'-cyclic-AMP phosphodiesterase 4D (Q08499 whole entry): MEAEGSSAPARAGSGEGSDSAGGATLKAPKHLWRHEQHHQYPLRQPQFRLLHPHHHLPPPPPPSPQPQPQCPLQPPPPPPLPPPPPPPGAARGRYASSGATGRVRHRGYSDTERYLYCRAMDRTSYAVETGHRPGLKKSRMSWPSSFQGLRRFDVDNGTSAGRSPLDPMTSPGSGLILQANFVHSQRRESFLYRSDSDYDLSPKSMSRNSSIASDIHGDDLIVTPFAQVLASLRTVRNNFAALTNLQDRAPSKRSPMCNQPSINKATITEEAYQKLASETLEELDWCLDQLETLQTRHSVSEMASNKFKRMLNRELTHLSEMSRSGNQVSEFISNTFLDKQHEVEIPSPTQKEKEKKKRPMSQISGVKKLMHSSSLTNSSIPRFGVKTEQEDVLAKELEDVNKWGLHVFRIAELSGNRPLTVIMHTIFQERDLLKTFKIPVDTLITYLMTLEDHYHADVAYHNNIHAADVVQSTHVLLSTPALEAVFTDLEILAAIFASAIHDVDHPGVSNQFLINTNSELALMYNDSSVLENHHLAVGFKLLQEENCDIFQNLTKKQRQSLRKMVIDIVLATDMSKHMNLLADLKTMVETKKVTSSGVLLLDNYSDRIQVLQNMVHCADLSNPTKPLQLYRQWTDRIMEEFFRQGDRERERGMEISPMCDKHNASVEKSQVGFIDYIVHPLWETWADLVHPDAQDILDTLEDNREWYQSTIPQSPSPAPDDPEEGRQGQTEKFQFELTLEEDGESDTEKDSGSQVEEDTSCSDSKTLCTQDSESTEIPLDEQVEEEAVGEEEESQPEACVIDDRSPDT
With `COc1ccc(-c2nc(C(=O)n3cccn3)co2)cc1`, the IC50 was determined as 8.4 µM.

Take `COc1ccc(-c2nc(C(=O)n3nc(C)cc3C)co2)cc1`: 10.6 µM corresponded to half-maximal inhibition (IC50).

Another assay has as its system PBMC. Nature of the assay: Anti-inflammatory activity in human PBMC assessed as inhibition of LPS-induced TNFalpha secretion preincubated for 30 mins followed by LPS stimulation for 18 hrs by TR-FRET assay. It is filed as functional, cell-based. On the technique in general: Time-resolved FRET reads energy transfer from a long-lived donor to a nearby acceptor.
On to `Cc1cc(C)n(C(=O)c2coc(-c3ccc(Br)cc3)n2)n1`, for which the 50% inhibitory concentration (IC50) was 168 µM.

With `Cc1cc(C)n(C(=O)c2coc(-c3cccc(O)c3)n2)n1`, the half-inhibitory concentration (IC50) amounted to 78.4 µM.

Regarding `COc1ccc(-c2nc(C(=O)n3cccn3)co2)cc1`, the 50% inhibitory concentration (IC50) worked out at 20.8 µM.

As to `Cc1ccc(-c2nc(C(=O)n3cccn3)co2)cc1`, the concentration for half-maximal inhibition (IC50) amounted to 72.4 µM.

Take `COc1cccc(-c2nc(C(=O)n3nc(C)cc3C)co2)c1`: the IC50 came out at 18.7 µM.

Regarding `Cc1ccc(-c2nc(C(=O)n3nc(C)cc3C)co2)cc1`, the half-inhibitory concentration (IC50) turned out to be 36.7 µM.

Turning to `O=C(c1coc(-c2ccc(O)cc2)n1)n1cccn1`, the IC50 is 75.5 µM.

With `O=C(c1coc(-c2cccc(O)c2)n1)n1cccn1`, the IC50 amounted to 88.4 µM.

With `COc1ccc(C2CNC(=O)C2)cc1OC1CCCC1` (stereo not drawn) [ROLIPRAM], the half-maximal inhibitory concentration (IC50) was 18.6 µM.

For `O=C(c1coc(-c2ccc(F)cc2)n1)n1cccn1`, the IC50 came out at 54.8 µM.

With `O=C(c1coc(-c2ccccc2O)n1)n1cccn1`, the IC50 came out at 205 µM.

With `COc1ccc(-c2nc(C(=O)n3nc(C)cc3C)co2)cc1`, the half-inhibitory concentration (IC50) amounted to 10.3 µM.

For the compound `Cc1cc(C)n(C(=O)c2coc(-c3ccccc3O)n2)n1`, the IC50 turned out to be 139 µM.

With `Cc1cc(C)n(C(=O)c2coc(-c3ccccc3)n2)n1`, the IC50 was 199 µM.

Consider `Cc1cc(C)n(C(=O)c2coc(-c3ccc(O)cc3)n2)n1`, for which the concentration for half-maximal inhibition (IC50) stood at 66.4 µM.

On to `COc1cccc(-c2nc(C(=O)n3cccn3)co2)c1`, for which the concentration for half-maximal inhibition (IC50) is 45.8 µM.

Regarding `O=C(c1coc(-c2cccc(F)c2)n1)n1cccn1`, the IC50 came out at 99.6 µM.

For the compound `O=C(c1coc(-c2ccc(Br)cc2)n1)n1cccn1`, the IC50 was determined as 187 µM.

Turning to `O=C(c1coc(-c2ccc(Cl)cc2)n1)n1cccn1`, the IC50 amounted to 40.1 µM.

As to `Cc1cc(C)n(C(=O)c2coc(-c3ccc(F)cc3)n2)n1`, the IC50 stood at 29.7 µM.

`O=C(c1coc(-c2ccccc2)n1)n1cccn1`: the half-maximal inhibitory concentration (IC50) was determined as 199 µM.

As to `Cc1cc(C)n(C(=O)c2coc(-c3cccc(F)c3)n2)n1`, the IC50 is 83.4 µM.

Turning to `Cc1cc(C)n(C(=O)c2coc(-c3ccc(Cl)cc3)n2)n1`, the IC50 turned out to be 27.6 µM.

A further assay deals with Mus musculus. Briefly: Anti-inflammatory activity in LPS-induced Swiss albino mouse sepsis model assessed as inhibition of TNF-alpha release in serum at 10 mg/kg, po administered 30 mins prior to LPS challenge measured after 90 mins by ELISA relative to control. In kind it is functional. A general note: In an ELISA, binding on a coated surface is turned into a signal by an enzyme label.
Regarding `COc1ccc(-c2nc(C(=O)n3cccn3)co2)cc1`, the inhibition in vivo (as a rule, the change of the read-out against control, counted positive when it falls) at 10 mg/kg came to 26.1%.

For `COc1ccc(C2CNC(=O)C2)cc1OC1CCCC1` (stereo not drawn) [ROLIPRAM], the inhibition in vivo at 10 mg/kg stood at 40.8%.

Turning to `COc1ccc(-c2nc(C(=O)n3nc(C)cc3C)co2)cc1`, the inhibition in vivo at 10 mg/kg is 42.6%.

The test system of a further assay is Rattus norvegicus. Briefly: Anti-inflammatory activity in Sprague-Dawley rat model of LPS-induced asthma/COPD assessed as inhibition of neutrophilia in lungs at 10 mg/kg, po administered 30 mins prior to LPS challenge for 40 mins measured after 6 hrs relative to control. In kind it is functional.
Regarding `COc1ccc(-c2nc(C(=O)n3cccn3)co2)cc1`, the inhibition in vivo at 10 mg/kg came out at 22.4%.

Consider `COc1ccc(C2CNC(=O)C2)cc1OC1CCCC1` (stereo not drawn) [ROLIPRAM], for which the inhibition in vivo at 10 mg/kg is 30.9%.

As to `COc1ccc(-c2nc(C(=O)n3nc(C)cc3C)co2)cc1`, the inhibition in vivo at 10 mg/kg is 39.1%.
